Where two headings read alike, the source gives them in different places.
Tests used:
Nox4 = target: T1, Nox4 (Homo sapiens, UniProt Q9NPH5); conditions: Bae et al. 2016; cited from earlier work
T1 construct: host or cells: drosophila
T1 sequence (Q9NPH5 1-578): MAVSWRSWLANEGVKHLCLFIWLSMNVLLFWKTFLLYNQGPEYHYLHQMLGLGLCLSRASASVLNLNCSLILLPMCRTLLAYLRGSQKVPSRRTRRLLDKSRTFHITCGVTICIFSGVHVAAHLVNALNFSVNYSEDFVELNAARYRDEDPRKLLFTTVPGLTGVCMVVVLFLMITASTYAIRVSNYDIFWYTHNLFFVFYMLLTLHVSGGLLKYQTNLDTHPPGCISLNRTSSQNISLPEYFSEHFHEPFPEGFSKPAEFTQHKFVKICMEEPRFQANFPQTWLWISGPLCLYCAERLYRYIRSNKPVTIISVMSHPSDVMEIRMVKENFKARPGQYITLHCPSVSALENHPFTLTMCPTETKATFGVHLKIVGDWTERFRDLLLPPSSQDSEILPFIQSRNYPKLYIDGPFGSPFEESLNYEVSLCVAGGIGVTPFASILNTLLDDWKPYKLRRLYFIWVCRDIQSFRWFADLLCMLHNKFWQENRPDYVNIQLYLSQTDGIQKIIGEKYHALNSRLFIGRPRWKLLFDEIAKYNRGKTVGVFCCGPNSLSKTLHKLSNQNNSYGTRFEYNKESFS

Nox1 = target: T2, Nox1 (Homo sapiens, UniProt Q9Y5S8); conditions: Bae et al. 2016; cited from earlier work
T2 construct: host or cells: drosophila
T2 sequence (Q9Y5S8 1-564): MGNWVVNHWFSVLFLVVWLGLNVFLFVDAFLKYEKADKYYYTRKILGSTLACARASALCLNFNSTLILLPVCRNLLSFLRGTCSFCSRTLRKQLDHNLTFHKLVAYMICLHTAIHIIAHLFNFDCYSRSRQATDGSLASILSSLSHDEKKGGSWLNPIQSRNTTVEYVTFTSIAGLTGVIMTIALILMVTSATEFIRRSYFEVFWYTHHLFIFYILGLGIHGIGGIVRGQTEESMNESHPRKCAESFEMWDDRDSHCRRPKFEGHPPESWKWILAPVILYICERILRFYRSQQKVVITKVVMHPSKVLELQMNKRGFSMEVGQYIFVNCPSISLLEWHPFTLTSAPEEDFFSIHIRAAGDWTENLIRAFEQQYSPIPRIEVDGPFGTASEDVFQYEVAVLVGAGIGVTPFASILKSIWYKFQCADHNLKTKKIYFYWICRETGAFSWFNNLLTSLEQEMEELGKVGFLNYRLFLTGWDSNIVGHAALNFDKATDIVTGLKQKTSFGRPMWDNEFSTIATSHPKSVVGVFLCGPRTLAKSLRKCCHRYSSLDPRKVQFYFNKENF

dopaminergic neurons [1] = conditions: experimental models of PD; Cristóvão et al. 2019; cited from earlier work
[2] = Decomposition temperature by thermogravimetric analysis (TGA); type: physicochemical; conditions: TGA (FIG. 5)
Description: In an embodiment, the decomposition temperature of [Chol]2[N1(4)inh]+N1(4)inh was evaluated by thermogravimetric analysis (TGA) and the results disclose that the mixture is thermally stable up to 200° C., as disclosed in FIG. 5.
In an embodiment, the decomposition temperature was determined by thermogravimetric analysis (TGA).

[3] = Solubility in water and PBS (saturation, UV-spectroscopy); type: physicochemical; conditions: thermodynamic from solid, 37° C., minimum 72 h
Description: In an embodiment, the solutes N1(4)inh and mixture comprising [Chol]2[N1(4)inh]+N1(4)inh were added in excess to a fixed volume (500 μL) of water and PBS solution. These mixtures were incubated at 37° C., under constant agitation 1150 rpm and for a minimum of 72 h, using an Eppendorf Thermomixer Comfort equipment. Throughout this process, solute was added to the mixture, whenever necessary, i.e., until the solution saturation. All samples were filtered using syringe filters ([…]) to remove possible suspended solid particles.
(§1) In an embodiment, the quantification of N1(4)inh and [Chol]2[N1(4)inh] was carried by UV-spectroscopy, using a UV-spectrophotometry (SYNERGY|HT microplate reader, BioTek) at a wavelength of 416 nm and 480 nm, respectively. The interference of the PBS with the quantification method was also ascertained and blank control samples were always used.
as §1, with “embodiment, solutes (N1(4)inh and [Chol]2[N1(4)inh]+N1(4)inh) were added in excess to a fixed volume (500 μL) of water and PBS solution. […] The” for “embodiment, the”, “and [Chol]2[N1(4)inh]+N1(4)inh” for “and [Chol]2[N1(4)inh]”

[4] = tested on: male wistar rats exposed to PQ; type: in vivo; conditions: PQ 2.5 mg/kg/day subcutaneous 4 weeks, week 8, vs control group (FIG. 22)
Description: (§2) In an embodiment, the biological neuroprotective effect of [Chol]2[N1(4)inh]+N1(4)inh+N1(4)inh when administrated via intranasal route was evaluated in rat model for PD induced by the exposure to a low chronic dose of PQ and through the analysis of the progression of behavior dysfunction. In this model, the animals are exposed to the toxin during 30 days (4 weeks) and then keeped alive during more 30 days to allow the pathology to progress (Total 8 weeks). The administration of [Chol]2[N1(4)inh]+N1(4)inh started after the first 30 exposure to PQ, via brain intraventricle or intranasal route and lasted the second 30 days. Animals were euthanized at week 8.
In an embodiment, male wistar rats 8-12 week-old subjected to subcutaneous chronic administration of PQ, that was carried out using osmotic minipumps (Alzet Durect, Cupertino, CA) at a dose of 2.5 mg/kg/day with a fluid delivery rate of 0.25 μL/hr for a period of four weeks (Alzet model 2004, large pumps). […] To evaluate the neuroprotective function of the IL-based formulation when administrated via intranasal route, behavior function was evaluated. Motor coordination, balance and grip strength were analyzed using a rat rotarod apparatus model 47700 (Ugo Basile, Comerio, Italy). […] The training was performed in 2 consecutive days, on each day 4 test trials were assessed, each lasting 5 min. […]

[5] = tested on: male wistar rats exposed to PQ; type: in vivo; conditions: PQ 2.5 mg/kg/day subcutaneous 4 weeks
Description: as §2, with “administrated via brain intraventricular infusion route was” for “administrated via intranasal route was”, “evaluated in a rat model” for “evaluated in rat model”, “dose of PQ, through the” for “dose of PQ and through the”
In an embodiment, male wistar rats 8-12 week-old were housed in a temperature/humidity-controlled environment under 12 h light/dark cycle with free access to water and food and subjected to subcutaneous chronic administration of PQ, that was carried out using osmotic minipumps (Alzet Durect, Cupertino, CA) at a dose of 2.5 mg/kg/day with a fluid delivery rate of 0.25 μL/hr for a period of four weeks (Alzet model 2004, large pumps). Control groups were implanted with minipump filled with sterile saline, the vehicle used to dissolve PQ. […] Once the rat skull was exposed and, using a digital coordinates system, the infusion sites were determined setting the zero at the bregma point. […] To evaluate the neuroprotective function of the IL-based formulation when infused in brain ventricle, behavior function was evaluated. Motor coordination, balance and grip strength were analyzed using a rat rotarod apparatus model 47700 (Ugo Basile, Comerio, Italy). […] The training was performed in 2 consecutive days, on each day 4 test trials were assessed, each lasting 5 min. […] The rotarod test was performed under an accelerating protocol (4-40 RPM) for 5 min, and the latency to fall was recorded using a specific software. […]

[6] = Afonso 2017, MSc thesis; cited from earlier work
dopaminergic neurons [7] = conditions: PD models; Afonso 2017; cited from earlier work

CN1C(=S)N(C2CCCCC2)C(=O)C1=Cc1ccc(O)cc1O [N1(4)inh, 3-cyclohexyl-5-(2,4-dihydroxybenzylidene)-1-methyl-2-thiohydantoin]
inhibition of Nox4 (Nox4): partial inhibitor
inhibition of Nox1 (Nox1): effective inhibitor
neuroprotective potential (dopaminergic neurons [1]): high neuroprotective potential
decomposition temperature (thermal stability) [2]: 200 °C
solubility ([3]; aqueous buffer, PBS, read-out: solubility in PBS): 8 ± 1 µg/mL
solubility ([3]; water, read-out: solubility in water): 11 ± 2 µg/mL

C[n+]1ccc(-c2cc[n+](C)cc2)cc1 [PQ, paraquat]
reduction in the latency to fall (rotarod) [4]: 47%
reduction in the distance travelled (open-field) ([5]; week 8, vs control (FIG. 20)): 55%
reduction of speed (open-field) ([5]; week 8, vs control (FIG. 21)): 50%
reduction in the latency to fall (rotarod) ([5]; week 8, vs control group (FIG. 19)): 43%

COc1cc(C(C)=O)ccc1[O-].C[N+](C)(C)CCO [[Chol][Apo], cholinium apocynate]
increase in water solubility versus Apo [6]: 50 fold
6OHDA-induced toxicity in dopaminergic neurons (dopaminergic neurons [7]): significant reduction

From patent US12514845B2, “Ionic-liquid-based formulations for the prevention or treatment of neurological diseases” (Universidade De Aveiro, priority 2022, dated 2026)
